Experimental data from US20240285552A1 (priority 2020, published 2024).
Residues, ends and D or L forms follow the SMILES beside them. *: point of attachment. Cbz = O=C(OCc1ccccc1)*; CH2F = FC*

Test system: B.1.617.2 Delta Variant of SARS-CoV-2
Test: microbe, parasite or virus in culture
Assay type: cell-based

CC(C)C[C@H](NC(=O)OCc1ccccc1)C(=O)N[C@@H](CC(C)C)C(=O)N[C@@H](Cc1ccc(O)cc1)C(=O)CF [Calpain Inhibitor IV] (Cbz-Leu-Leu-Tyr-CH2F)
Conc. at Max. % Inhibition: 0.45 µM
Max. Inhibition: 105.43%
IC50 (read-out: IC 50 against B.1.617.2 Delta Variant Infection-Induced CPE): 124 nM
